What was measured:
[1] = tested on: Aβ42; experiment: Screening for γ-secretase-modulating activity: Aβ42 in supernatant of SKNBE2 cells carrying hAPP 695 wild type (Alphalisa); assay type: cell-based, human; conditions: overnight incubation, Alphalisa on supernatant
Outline: (§1)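 Secreted Aβ42 (C-terminal/N-terminal antibody pair) and Aβtotal (N-terminal/mid-region pair) were quantified by AlphaLISA after overnight compound exposure of wild-type hAPP 695 SKNBE2 cells at 37 °C. Values expressed relative to compound-free maximum, with IC50 from nonlinear 4-parameter regression.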

[2] = tested on: Aβtotal; experiment: Screening for γ-secretase-modulating activity: Aβtotal in supernatant of SKNBE2 cells carrying hAPP 695 wild type (Alphalisa); assay type: cell-based, human; conditions: overnight incubation, Alphalisa on supernatant
Outline: as §1

[3] = SKNBE2 human neuroblastoma cells carrying hAPP 695 wild type
[4] = Homo sapiens, SKNBE2, SKNBE2 human neuroblastoma cells carrying hAPP 695 wild type

Compound	melting point	IC50 [1, 3]	IC50 [2, 3]	IC50 [1, 4]	IC50 [2, 4]
COc1c(C#N)ccc2[nH]c(-c3cn4c(n3)C(c3c(C)cccc3F)OCC4)cc12 (stereo not drawn) [Compound 139, 2-[8-(2-fluoro-6-methylphenyl)-5,6-dihydro-8H-imidazo[2,1-c][1,4]oxazin-2-yl]-4-methoxy-1H-indole-5-carbonitrile]	296.2 °C	1620 nM	> 10000 nM	–	–
N#Cc1ccc2[nH]c(-c3nc4n(n3)CCCC4c3ccccc3C(F)(F)F)nc2c1 (stereo not drawn) [Compound 38, 2-[5,6,7,8-tetrahydro-8-[2-(trifluoromethyl)phenyl][1,2,4]triazolo[1,5-a]pyridin-2-yl]-1H-benzimidazole-5-carbonitrile]	252.2 °C	–	–	871 nM	> 10000 nM
COc1c(C#N)ccc2[nH]c(-c3nc4n(n3)CCOC4c3ccc(F)c(Cl)c3)cc12 (stereo not drawn) [Compound 157, 2-[8-(3-chloro-4-fluorophenyl)-5,6-dihydro-8H-[1,2,4]triazolo[5,1-c][1,4]oxazin-2-yl]-4-methoxy-1H-indole-5-carbonitrile]	265.5 °C	7590 nM	> 10000 nM	–	–
Cc1cn(-c2ccc3[nH]c(-c4nc5n(n4)CCOC5c4ccc(F)cc4C)cc3c2)cn1 (single isomer, unassigned) [Compound 110, 8-(4-fluoro-2-methylphenyl)-5,6-dihydro-2-[5-(4-methyl-1H-imidazol-1-yl)-1H-indol-2-yl]-8H-[1,2,4]triazolo[5,1-c][1,4]oxazine]	278 °C	36 nM	> 10000 nM	–	–
CCc1cc(F)ccc1C1OCCn2nc(-c3cc4cc(-n5cnc(C)c5)ccc4[nH]3)nc21 (stereo not drawn) [Compound 105, 8-(2-ethyl-4-fluorophenyl)-5,6-dihydro-2-[5-(4-methyl-1H-imidazol-1-yl)-1H-indol-2-yl]-8H-[1,2,4]triazolo[5,1-c][1,4]oxazine]	285.7 °C	–	–	34 nM	> 10000 nM
Cc1cc(F)ccc1C1CCCn2cc(-c3cc4cc(C#N)ncc4[nH]3)nc21 (stereo not drawn) [Compound 72, 2-[8-(4-fluoro-2-methylphenyl)-5,6,7,8-tetrahydroimidazo[1,2-a]pyridin-2-yl]-1H-pyrrolo[2,3-c]pyridine-5-carbonitrile]	255.5 °C	–	–	126 nM	> 10000 nM
COc1c(C#N)ccc2[nH]c(-c3nc4n(n3)CCOC4c3ccccc3C(F)(F)F)cc12 (single isomer, unassigned) [Compound 57, 2-[5,6-dihydro-8-[2-(trifluoromethyl)phenyl]-8H-[1,2,4]triazolo[5,1-c][1,4]oxazin-2-yl]-4-methoxy-1H-indole-5-carbonitrile]	–	603 nM	> 10000 nM	–	–
Cc1cc(F)ccc1C1CCCn2nc(-c3cc4cc(C#N)cnc4[nH]3)nc21 (stereo not drawn) [Compound 23, 2-[8-(4-fluoro-2-methylphenyl)-5,6,7,8-tetrahydro[1,2,4]triazolo[1,5-a]pyridin-2-yl]-1H-pyrrolo[2,3-b]pyridine-5-carbonitrile]	–	–	–	589 nM	> 10000 nM
Cc1cn(-c2ccc3[nH]c(-c4nc5n(n4)CCOC5c4ccc(F)cc4C)cc3n2)cn1 (stereo not drawn) [Compound 94, 8-(4-fluoro-2-methylphenyl)-5,6-dihydro-2-[5-(4-methyl-1H-imidazol-1-yl)-1H-pyrrolo[3,2-b]pyridin-2-yl]-8H-[1,2,4]triazolo[5,1-c][1,4]oxazine]	–	–	–	170 nM	1820 nM
COCCOc1c(C#N)ccc2[nH]c(-c3cn4c(n3)C(c3ccc(F)cc3C)OCC4)cc12 (stereo not drawn) [Compound 167, 2-[8-(4-fluoro-2-methylphenyl)-5,6-dihydro-8H-imidazo[2,1-c][1,4]oxazin-2-yl]-4-(2-methoxyethoxy)-1H-indole-5-carbonitrile]	–	–	–	257 nM	> 10000 nM
COc1c(C#N)ccc2[nH]c(-c3nc4n(n3)CCOC4c3cc(C(F)(F)F)ccc3F)cc12 (stereo not drawn) [Compound 121, 2-[8-[2-fluoro-5-(trifluoromethyl)phenyl]-5,6-dihydro-8H-[1,2,4]triazolo[5,1-c][1,4]oxazin-2-yl]-4-methoxy-1H-indole-5-carbonitrile]	–	–	–	110 nM	> 10000 nM
Cc1ccc(C(F)(F)F)cc1C1OCCn2nc(-c3cc4cc(C#N)ccc4[nH]3)nc21 (stereo not drawn) [Compound 34, 2-[5,6-dihydro-8-[2-methyl-5-(trifluoromethyl)phenyl]-8H-[1,2,4]triazolo[5,1-c][1,4]oxazin-2-yl]-1H-indole-5-carbonitrile]	–	–	–	692 nM	> 10000 nM
COc1c(C#N)ccc2[nH]c(-c3nc4n(n3)CCOC4c3ccccc3Cl)cc12 (stereo not drawn) [Compound 140, 2-[8-(2-chlorophenyl)-5,6-dihydro-8H-[1,2,4]triazolo[5,1-c][1,4]oxazin-2-yl]-4-methoxy-1H-indole-5-carbonitrile]	–	1150 nM	> 10000 nM	–	–
COc1c(C#N)ccc2[nH]c(-c3nc4n(n3)CCOC4c3cc(C(F)(F)F)ccc3F)cc12 (single isomer, unassigned) [Compound 161, 2-[8-[2-fluoro-5-(trifluoromethyl)phenyl]-5,6-dihydro-8H-[1,2,4]triazolo[5,1-c][1,4]oxazin-2-yl]-4-methoxy-1H-indole-5-carbonitrile]	–	98 nM	> 10000 nM	–	–
N#Cc1ccc2[nH]c(-c3cn4c(n3)C(c3ccccc3C(F)(F)F)CCC4)cc2c1 (stereo not drawn) [Compound 17, 2-[5,6,7,8-tetrahydro-8-[2-(trifluoromethyl)phenyl]imidazo[1,2-a]pyridin-2-yl]-1H-indole-5-carbonitrile]	–	–	–	87 nM	> 10000 nM
COc1c(C#N)ccc2[nH]c(-c3nc4n(n3)CCOC4c3c(F)cccc3C(F)(F)F)cc12 (stereo not drawn) [Compound 125, 2-[8-[2-fluoro-6-(trifluoromethyl)phenyl]-5,6-dihydro-8H-[1,2,4]triazolo[5,1-c][1,4]oxazin-2-yl]-4-methoxy-1H-indole-5-carbonitrile]	–	71 nM	–	–	> 10000 nM
N#Cc1ccc2[nH]c(-c3nc4n(n3)CCOC4c3ccccc3C(F)(F)F)cc2c1 (stereo not drawn) [Compound 35, 2-[5,6-dihydro-8-[2-(trifluoromethyl)phenyl]-8H-[1,2,4]triazolo[5,1-c][1,4]oxazin-2-yl]-1H-indole-5-carbonitrile]	–	–	–	363 nM	> 10000 nM
COCc1ccccc1C1OCCn2cc(-c3cc4c(OC)c(C#N)ccc4[nH]3)nc21 (stereo not drawn) [Compound 146, 2-[5,6-dihydro-8-[2-(methoxymethyl)phenyl]-8H-imidazo[2,1-c][1,4]oxazin-2-yl]-4-methoxy-1H-indole-5-carbonitrile]	–	6170 nM	> 10000 nM	–	–
COc1c(C#N)ccc2[nH]c(-c3cn4c(n3)COCC4(C)c3cc(C(F)(F)F)ccc3F)cc12 (stereo not drawn) [Compound 183, 2-[5-[2-fluoro-5-(trifluoromethyl)phenyl]-5,6-dihydro-5-methyl-8H-imidazo[2,1-c][1,4]oxazin-2-yl]-4-methoxy-1H-indole-5-carbonitrile]	–	–	–	2880 nM	> 10000 nM
COc1c(C#N)ccc2[nH]c(-c3nc4n(n3)CCOC4c3cc(C(F)(F)F)ccc3F)cc12 (single isomer, unassigned) [Compound 160, 2-[8-[2-fluoro-5-(trifluoromethyl)phenyl]-5,6-dihydro-8H-[1,2,4]triazolo[5,1-c][1,4]oxazin-2-yl]-4-methoxy-1H-indole-5-carbonitrile]	–	5130 nM	–	–	> 10000 nM
COc1c(-n2cnc(C)c2)ccc2[nH]c(-c3nc4n(n3)CCCC4c3ccc(F)cc3C)cc12 (single isomer, unassigned) [Compound 83, 8-(4-fluoro-2-methylphenyl)-5,6,7,8-tetrahydro-2-[4-methoxy-5-(4-methyl-1H-imidazol-1-yl)-1H-indol-2-yl]-[1,2,4]triazolo[1,5-a]pyridine]	–	14 nM	2340 nM	–	–
Cc1cc(F)ccc1C1CCCn2cc(-c3cc4nc(-c5cnn(C)c5)ccc4[nH]3)nc21 (stereo not drawn) [Compound 85, 2-[8-(4-fluoro-2-methylphenyl)-5,6,7,8-tetrahydroimidazo[1,2-a]pyridin-2-yl]-5-(1-methyl-1H-pyrazol-4-yl)-1H-pyrrolo[3,2-b]pyridine]	–	9120 nM	–	–	> 10000 nM
COc1c(C#N)ccc2[nH]c(-c3cn4c(n3)C(c3c(C)cccc3F)OCC4)cc12 (stereo not drawn) [Compound 124, 2-[8-(2-fluoro-6-methylphenyl)-5,6-dihydro-8H-imidazo[2,1-c][1,4]oxazin-2-yl]-4-methoxy-1H-indole-5-carbonitrile]	–	47 nM	–	–	> 10000 nM
COc1c(C#N)ccc2[nH]c(-c3cn4c(n3)C(c3cccc(F)c3C)OCC4)cc12 (stereo not drawn) [Compound 40, 2-[8-(3-fluoro-2-methylphenyl)-5,6-dihydro-8H-imidazo[2,1-c][1,4]oxazin-2-yl]-4-methoxy-1H-indole-5-carbonitrile]	–	35 nM	–	–	> 10000 nM
COCc1ccccc1C1OCCn2cc(-c3cc4c(OC)c(C#N)ccc4[nH]3)nc21 (stereo not drawn) [Compound 120, 2-[5,6-dihydro-8-[2-(methoxymethyl)phenyl]-8H-imidazo[2,1-c][1,4]oxazin-2-yl]-4-methoxy-1H-indole-5-carbonitrile]	–	123 nM	–	–	> 10000 nM
COc1c(C#N)ccc2[nH]c(-c3nc4n(n3)CCCOC4c3ccc(F)cc3C)cc12 (stereo not drawn) [Compound 54, 2-[9-(4-fluoro-2-methylphenyl)-6,7-dihydro-5H,9H-[1,2,4]triazolo[5,1-c][1,4]oxazepin-2-yl]-4-methoxy-1H-indole-5-carbonitrile]	–	2340 nM	> 10000 nM	–	–
Cc1cc(F)ccc1C1CCCn2cc(-c3cc4nc(-c5cnn(C)c5)ccc4[nH]3)nc21 (stereo not drawn) [Compound 86, 2-[8-(4-fluoro-2-methylphenyl)-5,6,7,8-tetrahydroimidazo[1,2-a]pyridin-2-yl]-5-(1-methyl-1H-pyrazol-4-yl)-1H-pyrrolo[3,2-b]pyridine]	–	112 nM	> 10000 nM	–	–

Reference: patent publication US9115143B2, “Substituted indole derivatives as gamma secretase modulators” (Janssen Pharmaceuticals, Inc., priority 2011, dated 2015)
